Test results from DBAASP.
Converted amounts (≈) assume the structure as drawn. Values belong to the molecule of their own block, whether it stands above or below them.

Tests used:
Assay in all cases: ≥ marks a high value that may be exact or a test limit, other limits are often not marked, values filed in µg/mL are converted to µM
[1] = tested on: Bacillus subtilis ATCC 9372
[2] = tested on: Burkholderia thailandensis
[3] = tested on: Bacillus anthracis Sterne 34F2
[4] = tested on: Bacillus subtilis var. niger ATCC 9372
Escherichia coli K91BK = tested on: Escherichia coli K91BK
[5] = tested on: Pseudomonas aeruginosa CGMCC 1.860
[6] = tested on: Enterobacter cloacae CGMCC 1.58
[7] = tested on: Lactococcus lactis AS1.1690
Escherichia coli AS1.349 = tested on: Escherichia coli AS1.349
[8] = tested on: Enterococcus faecium CGMCC 1.2334
Bacillus cereus AS1.126 = tested on: Bacillus cereus AS1.126
[9] = tested on: Staphylococcus epidermidis CICC 23664
[10] = tested on: Enterococcus faecalis CGMCC 1.595
[11] = tested on: Klebsiella pneumoniae subsp. pneumoniae CGMCC 1.176
[12] = tested on: Acinetobacter baumannii CICC 22934
[13] = tested on: Klebsiella aerogenes CGMCC 1.876
[14] = tested on: Staphylococcus aureus AS1.72
[15] = tested on: Bacillus subtilis DSM 347
[16] = tested on: Kocuria rhizophila DSM 348
[17] = tested on: Franconibacter helveticus DSM 18396
[18] = tested on: Escherichia coli DH5alpha
[19] = tested on: Proteus mirabilis CICC 22931
[20] = tested on: Enterococcus faecalis ATCC 29212
[21] = tested on: Staphylococcus aureus ATCC 29213
[22] = tested on: Salmonella enterica subsp. enterica serovar Pullorum C79-13
Escherichia coli UB1005 = tested on: Escherichia coli UB1005
[23] = tested on: Bacillus subtilis CMCC 63501
[24] = tested on: Staphylococcus epidermidis ATCC 12228
[25] = tested on: Salmonella enterica subsp. enterica serovar Typhimurium ATCC 14028
[26] = tested on: Escherichia coli ATCC 25922

SMILES: CC[C@H](C)[C@H](NC(=O)[C@H](CCCN=C(N)N)NC(=O)[C@H](CC(C)C)NC(=O)[C@H](CCC(N)=O)NC(=O)[C@H](CCCCN)NC(=O)[C@H](CC(C)C)NC(=O)[C@H](CC(C)C)NC(=O)[C@H](CC(C)C)NC(=O)[C@@H](NC(=O)[C@H](CCCCN)NC(=O)[C@H](CC(=O)O)NC(=O)[C@H](C)NC(=O)[C@@H](NC(=O)[C@H](CCCCN)NC(=O)[C@H](CCCCN)NC(=O)[C@H](CC(=O)O)NC(=O)[C@@H](NC(=O)[C@H](Cc1cnc[nH]1)NC(C)=O)C(C)C)C(C)C)C(C)C)C(=O)N[C@@H](CCSC)C(=O)N[C@@H](CCCN=C(N)N)C(=O)N[C@@H](CC(C)C)C(=O)N[C@@H](CC(C)C)C(=O)N[C@H](C(=O)N[C@@H](CCCN=C(N)N)C(=O)N[C@@H](CC(C)C)C(N)=O)[C@@H](C)O [HVDKKVADKVLLLKQLRIMRLLTRL]
MIC [1]: 16 µM (≈ 48.7 µg/mL)
MIC [2]: ≥ 50 µM
MIC [3]: ≥ 35 µM

SMILES: CC[C@H](C)[C@H](NC(=O)CNC(=O)[C@H](CCCCN)NC(=O)[C@H](CCCN=C(N)N)NC(=O)[C@@H](NC(=O)[C@@H](NC(=O)[C@H](CCCN=C(N)N)NC(=O)[C@H](CCCN=C(N)N)NC(=O)[C@H](CC(C)C)NC(=O)[C@H](CC(N)=O)NC(=O)[C@H](CCCCN)NC(C)=O)[C@@H](C)CC)[C@@H](C)CC)C(=O)N[C@@H](Cc1cnc[nH]1)C(=O)N[C@H](C(=O)N[C@H](C(=O)N[C@@H](CCCCN)C(=O)N[C@@H](CCCCN)C(=O)N[C@@H](Cc1ccc(O)cc1)C(=O)NCC(N)=O)[C@@H](C)CC)[C@@H](C)CC [KNLRRIIRKGIHIIKKYG]
MIC [4]: 12.5 µM (≈ 28.1 µg/mL)
MIC [2]: ≥ 100 µM
MIC (Escherichia coli K91BK): ≥ 100 µM
MIC [3]: ≥ 100 µM

MIC [5]: 1.59 µM (≈ 4.07 µg/mL)
MIC [6]: ≥ 100 µM
MIC [7]: 1.98 µM (≈ 5.06 µg/mL)
MIC (Escherichia coli AS1.349): 6.25 µM (≈ 16 µg/mL)
MIC [8]: 2.9 µM (≈ 7.42 µg/mL)
MIC (Bacillus cereus AS1.126): 3.91 µM (≈ 10 µg/mL)
MIC [9]: 7 µM (≈ 17.9 µg/mL)
MIC [10]: 1.81 µM (≈ 4.63 µg/mL)
MIC [11]: ≥ 100 µM
MIC [12]: 7.81 µM (≈ 20 µg/mL)
MIC [13]: ≥ 100 µM
MIC [14]: 3.86 µM (≈ 9.87 µg/mL)
SMILES: CC(C)[C@H](NC(=O)[C@H](CCCCN)NC(=O)[C@@H](N)CO)C(=O)N[C@@H](Cc1c[nH]c2ccccc12)C(=O)N[C@@H](CCCN=C(N)N)C(=O)N[C@@H](Cc1cnc[nH]1)C(=O)N[C@@H](Cc1c[nH]c2ccccc12)C(=O)N[C@@H](CCCN=C(N)N)C(=O)N[C@@H](CCCN=C(N)N)C(=O)N[C@@H](Cc1ccccc1)C(=O)N[C@@H](Cc1c[nH]c2ccccc12)C(=O)N[C@@H](Cc1cnc[nH]1)C(=O)N[C@@H](CCCN=C(N)N)C(=O)N[C@@H](C)C(=O)N[C@@H](Cc1cnc[nH]1)C(=O)N[C@@H](CCCN=C(N)N)C(=O)N[C@@H](CCCCN)C(=O)N[C@@H](CCCCN)C(=O)O [SKVWRHWRRFWHRAHRKK]

SMILES: CC(=O)NCC(=O)N[C@@H](Cc1c[nH]c2ccccc12)C(=O)NCC(=O)N[C@@H](CO)C(=O)N[C@@H](Cc1ccccc1)C(=O)N[C@@H](Cc1ccccc1)C(=O)N[C@@H](CCCCN)C(=O)N[C@@H](CCCCN)C(=O)N[C@@H](C)C(=O)N[C@@H](C)C(=O)N[C@@H](Cc1cnc[nH]1)C(=O)N[C@H](C(=O)NCC(=O)N[C@@H](CCCCN)C(=O)N[C@@H](Cc1cnc[nH]1)C(=O)N[C@H](C(=O)NCC(=O)N[C@@H](CCCCN)C(=O)N[C@@H](C)C(=O)N[C@@H](C)C(=O)N[C@@H](CC(C)C)C(=O)N[C@H](C(=O)N[C@@H](Cc1cnc[nH]1)C(=O)N[C@@H](Cc1ccc(O)cc1)C(=O)N[C@@H](CC(C)C)C(N)=O)[C@@H](C)O)C(C)C)C(C)C [GWGSFFKKAAHVGKHVGKAALTHYL]
MIC [4]: 17.7 µM (≈ 48.7 µg/mL)
MIC (Escherichia coli K91BK): ≥ 100 µM
MIC [3]: ≥ 79.4 µM

MIC [15]: 8 µM (≈ 19.1 µg/mL)
MIC [16]: ≥ 64 µM
MIC [17]: ≥ 64 µM
MIC [18]: ≥ 64 µM
SMILES: CC[C@H](C)[C@H](NC(=O)CN)C(=O)NCC(=O)N[C@@H](CCCCN)C(=O)N[C@@H](Cc1ccccc1)C(=O)N[C@@H](CC(C)C)C(=O)N[C@@H](Cc1cnc[nH]1)C(=O)N[C@@H](CO)C(=O)N[C@@H](C)C(=O)N[C@@H](CCCCN)C(=O)N[C@@H](CCCCN)C(=O)N[C@@H](C)C(=O)NCC(=O)N[C@@H](CCCCN)C(=O)N[C@@H](C)C(=O)N[C@@H](Cc1ccccc1)C(=O)N[C@H](C(=O)NCC(=O)N[C@@H](CCC(=O)O)C(=O)N[C@H](C(=O)N[C@@H](CCSC)C(=O)N[C@@H](CC(N)=O)C(=O)N[C@@H](CO)C(=O)O)[C@@H](C)CC)C(C)C [GIGKFLHSAKKAGKAFVGEIMNS]

MIC [5]: 15.6 µM (≈ 26.5 µg/mL)
MIC [6]: ≥ 100 µM
MIC (Escherichia coli AS1.349): 2.5 µM (≈ 4.25 µg/mL)
MIC [8]: 5 µM (≈ 8.5 µg/mL)
MIC (Bacillus cereus AS1.126): 18.8 µM (≈ 31.9 µg/mL)
MIC [9]: 2.5 µM (≈ 4.25 µg/mL)
MIC [10]: 2.5 µM (≈ 4.25 µg/mL)
MIC [11]: ≥ 100 µM
MIC [19]: ≥ 100 µM
MIC [14]: 2.5 µM (≈ 4.25 µg/mL)
SMILES: CC[C@H](C)[C@H](N)C(=O)N[C@@H](CCCCN)C(=O)N[C@@H](CCCCN)C(=O)N[C@H](C(=O)N[C@@H](Cc1c[nH]c2ccccc12)C(=O)N[C@@H](CO)C(=O)N[C@@H](CCCCN)C(=O)N[C@H](C(=O)N[C@@H](CCCCN)C(=O)N[C@@H](CCCCN)C(=O)N[C@@H](Cc1c[nH]c2ccccc12)C(=O)N[C@@H](CC(C)C)C(=O)N[C@@H](CCCCN)C(=O)O)[C@@H](C)CC)[C@@H](C)CC [IKKIWSKIKKWLK]

MIC [20]: 4 µM (≈ 10.5 µg/mL)
MIC [21]: 4 µM (≈ 10.5 µg/mL)
MIC [22]: 8 µM (≈ 21 µg/mL)
MIC (Escherichia coli UB1005): 2 µM (≈ 5.26 µg/mL)
MIC [23]: 8 µM (≈ 21 µg/mL)
MIC [24]: 4 µM (≈ 10.5 µg/mL)
MIC [25]: 4 µM (≈ 10.5 µg/mL)
MIC [26]: 2 µM (≈ 5.26 µg/mL)
SMILES: CC[C@H](C)[C@H](NC(=O)[C@H](C)NC(=O)[C@H](CC(C)C)NC(=O)[C@@H]1CCCN1C(=O)[C@@H](NC(=O)[C@H](CC(C)C)NC(=O)[C@H](CCC(N)=O)NC(=O)[C@H](Cc1c[nH]c2ccccc12)NC(=O)[C@H](Cc1ccccc1)NC(=O)[C@H](CCCN=C(N)N)NC(=O)[C@@H](N)CCCCN)C(C)C)C(=O)N[C@@H](CCCCN)C(=O)N[C@H](C(=O)N[C@@H](Cc1ccc(O)cc1)C(=O)N[C@@H](CCCN=C(N)N)C(=O)N[C@@H](C)C(=O)N[C@@H](Cc1c[nH]c2ccccc12)C(=O)N[C@@H](CCCCN)C(=O)N[C@@H](CCCN=C(N)N)C(=O)N[C@@H](CCCN=C(N)N)C(=O)O)[C@@H](C)CC [KRFWQLVPLAIKIYRAWKRR]

MIC [15]: 1 µM (≈ 2.48 µg/mL)
MIC [16]: 8 µM (≈ 19.8 µg/mL)
MIC [17]: 8 µM (≈ 19.8 µg/mL)
MIC [18]: 16 µM (≈ 39.7 µg/mL)
SMILES: CC[C@H](C)[C@H](NC(=O)CN)C(=O)NCC(=O)N[C@@H](CCCCN)C(=O)N[C@@H](Cc1ccccc1)C(=O)N[C@@H](CC(C)C)C(=O)N[C@@H](Cc1cnc[nH]1)C(=O)N[C@@H](CO)C(=O)N[C@@H](C)C(=O)N[C@@H](CCCCN)C(=O)N[C@@H](CCCCN)C(=O)N[C@@H](Cc1ccccc1)C(=O)NCC(=O)N[C@@H](CCCCN)C(=O)N[C@@H](C)C(=O)N[C@@H](Cc1ccccc1)C(=O)N[C@H](C(=O)N[C@@H](C)C(=O)N[C@@H](CCC(=O)O)C(=O)N[C@H](C(=O)N[C@@H](CCSC)C(=O)N[C@@H](CC(N)=O)C(=O)N[C@@H](CO)C(=O)O)[C@@H](C)CC)C(C)C [GIGKFLHSAKKFGKAFVAEIMNS]
